For 1 compound, Ki results are on record in ChEMBL document CHEMBL3638512, “Piperazine compounds” (2013).

The Ki is a dissociation constant, usually derived from enzyme kinetics or from competition with a known ligand. A higher Ki goes with lower affinity.

In the assay the target is T1, Cathepsin K (Homo sapiens, UniProt P43235).
T1 sequence (P43235 whole entry): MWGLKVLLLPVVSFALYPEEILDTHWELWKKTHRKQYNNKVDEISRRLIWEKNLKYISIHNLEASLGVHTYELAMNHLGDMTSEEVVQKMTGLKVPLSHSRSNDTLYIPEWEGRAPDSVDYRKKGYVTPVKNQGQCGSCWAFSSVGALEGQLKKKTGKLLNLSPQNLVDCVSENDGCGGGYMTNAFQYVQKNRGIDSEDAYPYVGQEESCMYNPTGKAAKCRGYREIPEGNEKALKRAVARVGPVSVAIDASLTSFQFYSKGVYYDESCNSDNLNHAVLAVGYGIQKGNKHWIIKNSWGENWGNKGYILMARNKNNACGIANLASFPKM
The assay can be described thus: In Vitro Inhibition Assay: In vitro cathepsin inhibition assay.

Compound `C[C@H]1CN(C(=O)[C@@H](NC(=O)c2ccc(N3CCN(C)CC3)cc2)C(C)(C)C)[C@@H]2C(=O)CO[C@@H]21` came in with a Ki of 1.1 nM.
